We go through one substance from patent US20220105157A1, “Compositions and Methods for Promoting Angiogenesis in the Eye” (The Regents of the University of California, priority 2019, published 2022).

The test system of one data set is mouse retina. In words: Measurement of vascular leakage in retina (TRITC-dextran). Format: in vivo. The settings on record: mice, LIF 10 ng intravitreally. The method, then: Recombinant human VEGF (100 ng) or LIF (10 ng) was injected into the vitreous (0.1% BSA PBS solution as vehicle control). TRITC-dextran (50 mg/ml, 100 ul) was then injected into the tail vein. Ten minute later, animals were sacrificed and eyes were enucleated. Retina flat mount was imaged under microscope (65).

The subject of data set [1] is phosphorylation of STAT3, ERK and AKT in BCE cells. Description: Western blotting of LIF signaling in BCE cells. The data set is classed as cell-based, bovine. The settings on record: LIF treatment for 15 minutes. The method, then:
BCE and BAE cells were cultured in growth medium overnight. Growth medium was removed and then cells were washed twice with PBS. Recombinant human LIF was added to cells for 15 minutes, following 3-hour incubation in the following medium: DMEM-low glucose supplemented with 10% BCS, 2 mM glutamine and antibiotics for BCE cells, and DMEM-low glucose supplemented with 1% BCS and antibiotics for BAE cells. […] Cells were then lysed with RIPA lysis buffer (Life Technologies, CAT #89901) plus protease and phosphatase inhibitor cocktail (ThermoFisher Scientific CAT #78440). Protein concentrations in cell lysates were measured with the BCA assay (ThermoFisher Scientific CAT #23227). Equal amount of proteins were subjected to electrophoresis in NuPAGE 4-12% Bis-Tris gels (ThermoFisher Scientific, CAT #NW04125BOX) and then transferred onto PVDF membranes. Membranes were blocked with 5% non-fat milk in TBST at room temperature for 1 hour, incubated with primary antibodies indicated below in TBST containing 0.5% non-fat milk at 4° C. overnight then with secondary HRP-conjugated antibodies (1:2000, GE Healthcare) at room temperature for 1 h. Signals were developed with SuperSignal™ West Pico PLUS Chemiluminescent Substrate (ThermoFisher Scientific). Primary antibodies used: anti-phospho-STAT3 (Cell Signaling, CAT #9131, 1:3000), anti-STAT3 (Cell Signaling, CAT #4904, 1:3000), anti-phospho-ERK (Cell Signaling, CAT #4376, 1:5000), anti-ERK (Cell Signaling, CAT #4695, 1:5000), anti-phospho-AKT Ser473 (Cell Signaling, CAT #4060, 1:2000), anti-AKT (Cell Signaling, CAT #4691, 1:2000) and HRP-conjugated anti-beta-actin (Sigma, CAT #AC-15, 1; 10000).

The next data set concerns BAE cells. In words: BrdU incorporation assay. The data set is classed as cell-based, bovine. The settings on record: LIF 48 hours. How it is done:
BAE cells were plated at the density of 2×10^4 cells/well with 1 ml of culture medium (DMEM-low glucose plus 10% BCS) in a 12-well plate with a 18-mm poly-D-lysine-treated coverslip in each well, incubating at 37° C. overnight. After removal of culture medium, cells were incubated in 0.5 ml of DMEM-low glucose plus 1% BCS. LIF (10 ng/ml) and vehicle control (0.1% BSA in PBS) were added to the cells. Upon LIF treatment for 48 hours, cells were subjected to BrdU incorporation by adding 2.5 μl of 2 mM BrdU in DMSO to each well to a final concentration 10 μM and incubating for 4 hours. Then, cells are subjected to BrdU immunofluorescence staining using an antibody against BrdU conjugated with Fluor alexa-488 (Biolegend, CAT #364106, 1:400). Briefly, BrdU labeling medium was removed from the culture plates and cells were fixed with 3.7% formaldehyde in PBS at room temperature for 15 minutes. Cell DNAs were denatured with 1N HCl on ice for 10 minutes and 2N HCl at room temperature for 10 minutes following cell permeabilization with 0.1% Triton X-100 in PBS (PBST). […] Four fields were randomly selected for each sample and the BrdU-positive nuclei as well as total nuclei (DAPI-positive) were counted manually; the percentages of BrdU-positive cells were determined by dividing the numbers of BrdU-positive nuclei with the numbers of total nuclei. […]

Another data set deals with guinea pig skin. Description: Vessel permeability in guinea pig skin (Evans blue). Format: in vivo. The settings on record: intradermal 1, 5, 25, 100, 200 ng per injection site. How it is done: In FIG. 5A, Hairless male guinea pigs (Crl: HA-Hrhr/IAF, 450-500 g, Charles River Laboratories) were anesthetized by intraperitoneal (i.p.) administration of xylazine (5 mg/kg) and ketamine (75 mg/kg). The animals then received an intravenous injection (penile vein) of 1 ml of 1% Evans blue dye. After 15 min, intradermal injections (0.05 ml/per site) of different doses (1, 5, 25, 100, 200 ng per injection site) of rhLIF in PBS were administrated into the area of trunk posterior to the shoulder. 0.05 ml of PBS and 25 ng of VEGF in 0.05 ml of PBS were injected as negative and positive controls. 30 min after the intradermal injections, animals were euthanized by i.p. injection of pentobarbital (200 mg/kg). Skin tissues were dissected from the connective tissues and photographed, n=2. In FIG. 5B, Vascular leakage is shown in mouse retina. LIF (10 ng) or VEGF (100 ng) was injected in the vitreous cavity (0.1% BSA/PBS as control). TRITC-dextran was used to indicate the vascular leakage. Retinal vasculature was labeled by FITC-lectin, n=5.

Regarding “LIF: recombinant human leukemia inhibitory factor, a member of the IL-6 family of cytokines”, the retinal microvascular leakage entry in the data set on mouse retina is reported as “does not induce retinal microvascular leakage”. Also, in data set [1], the AKT phosphorylation entry is “little effects”, the “phosphorylation of ERK” value is given as “elicited phosphorylation” and the “phosphorylation of STAT3” value is “elicited phosphorylation”. Also, in the data set on BAE cells, the “BrdU incorporation compared to the vehicle control” value is “significantly reduced”. Further, in the data set with guinea pig skin, the “vascular permeability in guinea pig skin” value is on record as “does not induce vascular permeability”.
